Data reported in patent publication US11866438B2, “Compositions, uses and methods for making them” (Pimera, Inc., priority 2015, dated 2024).
Like-named read-outs stand apart in the source and are kept apart here.

Experiments:
Assay type in all cases: cell-based
THP-1 = experiment: Alamar Blue cell proliferation inhibition, THP-1; settings: Homo sapiens, Alamar Blue assay, 96 h incubation, Table 3, read-out: cell proliferation inhibition, Cell line THP-1
Procedure: (§1) Inhibitory activity on cell proliferation of representative compounds of the invention was determined using an Alamar Blue cell viability assay as described hereafter.
(§2) 3000 cancer cells in 100 uL of cell culture media were plated in each well of a 96-well clear bottom, black wall cell culture-pretreated plate.
(§3) The next day compounds are serially diluted (3-fold in cell culture media) across a 96-well polypropylene mother plate from row A to row F, to yield 6 concentrations (10 uM, 3.3 uM, 1.1 uM, 370 nM, 124 nM and 41 nM) for each test compound. Rows G and H contain only DMSO.
(§4) Once titrations are made, the media in plates with cells were disposed and 100 μL of drug dilutions are transferred to plates with cells. After a ninety six-hour incubation at 37° C., 10 uL of resazurin solution from Alamar Blue Cell Viability kit (Invitrogen, Carlsbad, CA) was added to the media and cells were incubated at 37° C. for three more hours. At the end of this incubation the production of resofurin was measured using Spectrmax M2 microplate reader (Molecular Devices, Sunnyvale, CA)

SKM-1_1 = experiment: Alamar Blue cell proliferation inhibition, SKM-1_1; settings: Alamar Blue assay, 96 h incubation, Table 3; read-out: cell proliferation inhibition, Cell line SKM-1_1
Procedure: as §1, §2, §3, §4

KG-1 = experiment: Alamar Blue cell proliferation inhibition, KG-1; settings: Homo sapiens, Alamar Blue assay, 96 h incubation, Table 3, read-out: cell proliferation inhibition, Cell line KG-1
Procedure: as §1, §2, §3, §4

P12-ICHIKAWA = experiment: Alamar Blue cell proliferation inhibition, P12-ICHIKAWA; settings: Homo sapiens, Alamar Blue assay, 96 h incubation, Table 3, read-out: cell proliferation inhibition, Cell line P12-ICHIKAWA
Procedure: as §1, §2, §3, §4

ML-2 = experiment: Alamar Blue cell proliferation inhibition, ML-2; settings: Homo sapiens, Alamar Blue assay, 96 h incubation, Table 3, read-out: cell proliferation inhibition, Cell line ML-2
Procedure: as §1, §2, §3, §4

NB-4-1 = experiment: Alamar Blue cell proliferation inhibition, NB-4-1; settings: Alamar Blue assay, 96 h incubation, Table 3; read-out: cell proliferation inhibition, Cell line NB-4-1
Procedure: as §1, §2, §3, §4

SK-BR-3 = experiment: Alamar Blue cell proliferation inhibition, SK-BR-3; settings: Homo sapiens, Alamar Blue assay, 96 h incubation
Procedure: as §1, §2, §3, §4

MBA-MB-231 = experiment: Alamar Blue cell proliferation inhibition, MBA-MB-231 (MM231); settings: Alamar Blue assay, 96 h incubation
Procedure: as §1, §2, §3, §4

[1] = Table 2, read-out: cell proliferation inhibition, Cell Line SK-BR-3
[2] = Table 2, read-out: cell proliferation inhibition, Cell Line MBA-MB-231
[3] = Table 3, read-out: cell proliferation inhibition, Cell line SK-BR-3
[4] = Table 3, read-out: cell proliferation inhibition, Cell line MM231

| SMILES | IC50 (SK-BR-3; [1]) [µM] | IC50 (MBA-MB-231; [2]) [µM] | also measured |
| --- | --- | --- | --- |
| CN(C)CCNc1nc2cccnc2n2c1nc1ccccc12 [Compound 5] | – | – | IC50 (THP-1): 1 to 5 µM; IC50 (SKM-1_1): 1 to 5 µM; IC50 (KG-1): 1 to 5 µM; IC50 (P12-ICHIKAWA): 1 to 5 µM; IC50 (ML-2): 1 to 5 µM; IC50 (NB-4-1): 1 to 5 µM |
| C[C@@H]1CN(c2nc3nccnc3n3c2nc2ccccc23)C[C@H](C)N1 [Compound 35] | 1 to 5 | 1 to 5 | – |
| Cc1ccc2nc(NCCN(C)C)c3nc4ccccc4n3c2n1 [Compound 13] | 1 to 5 | 1 to 5 | – |
| CN1CCCN(c2nc3cncnc3n3c2nc2ccccc23)CC1 [Compound 29] | 1 to 5 | 1 to 5 | – |
| COc1ccc2nc3c(cc(C(=O)NCCN(C)C)c4nccn43)cc2c1 [Compound 57] | 1 to 5 | 1 to 5 | – |
| O=c1[nH]c2ccc(NCCN3CCCC3)nc2n2c1nc1ccccc12 [Compound 39] | – | – | IC50 (SK-BR-3; [3]): 1 to 5 µM; IC50 (MBA-MB-231; [4]): 1 to 5 µM |
| CN(C)CCNc1nc2cncnc2n2c1nc1ccccc12 [Compound 27] | 1 to 5 | 1 to 5 | – |
| CN(C)CCNC(=O)c1cc2cc3ccccc3nc2n2ccnc12 [Compound 52] | – | – | IC50 (THP-1): 1 to 5 µM; IC50 (SKM-1_1): < 1 µM; IC50 (KG-1): 1 to 5 µM; IC50 (P12-ICHIKAWA): 1 to 5 µM; IC50 (ML-2): 1 to 5 µM; IC50 (NB-4-1): 1 to 5 µM |
| Cc1ccc2nc(N3C[C@@H](C)N[C@@H](C)C3)c3nc4ccccc4n3c2n1 [Compound 14] | 1 to 5 | 1 to 5 | – |
| CN(C)CCNC(=O)c1cc2cc3cc(Cl)ccc3nc2n2ccnc12 [Compound 61] | > 10 | > 10 | – |
| Clc1cnc2c(c1)nc(NCCN1CCCC1)c1nc3ccccc3n12 [Compound 19] | 1 to 5 | 1 to 5 | – |
| CN(C)CCNc1nc2nccnc2n2c1nc1ccccc12 [Compound 34] | 1 to 5 | 1 to 5 | – |
| CN1CCCN(c2ccc3[nH]c(=O)c4nc5ccccc5n4c3n2)CC1 [Compound 41, 2-(4-Methyl-[1,4]diazepan-1-yl)-5H-1,5,7,11b-tetraaza-benzo[c]fluoren-6-one] | – | – | IC50 (SK-BR-3; [3]): < 1 µM |
| CN1CCCN(c2nc3cc(Cl)cnc3n3c2nc2ccccc23)CC1 [Compound 22] | 1 to 5 | 5 to 10 | – |
| CN1CCCN(C(=O)c2cc3cc4ccccc4nc3n3ccnc23)CC1 [Compound 55] | – | – | IC50 (SK-BR-3; [3]): > 10 µM; IC50 (MBA-MB-231; [4]): > 10 µM |
| C[C@@H]1CN(c2nc3cncnc3n3c2nc2ccccc23)C[C@H](C)N1 [Compound 28] | 1 to 5 | 1 to 5 | – |
| CN(C)CCNc1nc2cc(Cl)cnc2n2c1nc1ccccc12 [Compound 20] | 1 to 5 | 1 to 5 | – |
| C[C@@H]1CN(c2nc3cc(Cl)cnc3n3c2nc2ccccc23)C[C@H](C)N1 [Compound 21] | > 10 | > 10 | – |
| CN1CCCN(c2nc3nccnc3n3c2nc2ccccc23)CC1 [Compound 36] | 1 to 5 | 1 to 5 | – |
| C[C@@H]1CN(C(=O)c2cc3cc4cc(Cl)ccc4nc3n3ccnc23)C[C@H](C)N1 [Compound 63] | > 10 | > 10 | – |
| O=C(NCCN1CCCC1)c1cc2cc3cc(Cl)ccc3nc2n2ccnc12 [Compound 62] | > 10 | > 10 | – |
| c1ccc2c(c1)nc1c(NCCN3CCCC3)nc3cncnc3n12 [Compound 26] | 1 to 5 | 1 to 5 | – |
| CN1CCCN(C(=O)c2cc3cc4cc(Cl)ccc4nc3n3ccnc23)CC1 [Compound 60] | > 10 | > 10 | – |
| Cc1ccc2nc(N3CCCN(C)CC3)c3nc4ccccc4n3c2n1 [Compound 15] | 1 to 5 | 1 to 5 | – |
| COc1ccc2nc3c(cc(C(=O)N4CCCN(C)CC4)c4nccn43)cc2c1 [Compound 56] | > 10 | > 10 | – |
| Cc1ccc2nc(NCCN3CCCC3)c3nc4ccccc4n3c2n1 [Compound 12] | 1 to 5 | 1 to 5 | – |
